Key:
LTED MCF7 cells = assay: LTED MCF7 cell proliferation assay; format: cell-based; conditions: model of aromatase resistance, 10^-11-10^-6 M, 8 day assay
ESR1 = biological target: T1, ESR1 (Mus musculus, UniProt P19785); assay: Uterine wet weight analysis in ovariectomized C57Bl/6 mice; format: in vivo; conditions: for uterine wet weight, single agent: without E2
T1 construct: tissue Charles River (mice); host or cells: uterus of ovariectomized female C57Bl/6 mice
T1 sequence (P19785 1-599): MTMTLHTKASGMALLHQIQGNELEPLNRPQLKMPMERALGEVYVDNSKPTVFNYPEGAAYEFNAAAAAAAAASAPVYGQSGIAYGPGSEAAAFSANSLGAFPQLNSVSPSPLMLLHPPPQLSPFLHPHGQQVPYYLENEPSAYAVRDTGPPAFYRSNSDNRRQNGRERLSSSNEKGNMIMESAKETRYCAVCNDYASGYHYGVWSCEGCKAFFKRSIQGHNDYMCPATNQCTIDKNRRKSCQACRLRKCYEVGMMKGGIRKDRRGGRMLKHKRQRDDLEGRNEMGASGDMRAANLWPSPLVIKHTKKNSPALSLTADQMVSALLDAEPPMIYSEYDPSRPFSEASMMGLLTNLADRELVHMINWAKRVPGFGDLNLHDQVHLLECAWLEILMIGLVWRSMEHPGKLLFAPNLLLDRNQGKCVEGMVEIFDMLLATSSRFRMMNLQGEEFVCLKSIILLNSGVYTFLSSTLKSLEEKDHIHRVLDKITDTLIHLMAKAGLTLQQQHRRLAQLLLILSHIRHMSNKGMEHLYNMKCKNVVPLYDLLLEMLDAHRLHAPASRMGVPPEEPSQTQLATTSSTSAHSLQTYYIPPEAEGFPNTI
Description: Uterine wet weight analysis: Ovariectomized (10 days prior) female C57Bl/6 mice (Charles River) were treated daily (n=5) for 3 days with vehicle or estradiol benzoate (10 μg/kg sc) as well as vehicle, raloxifene (10 mg/kg sc), or RAD1901 (0.1-100 mg/kg sc). Ligands were dissolved in corn oil (Spectrum chemicals). On day 4, mice were euthanized and tissues were retained for analysis. Uterine wet weight was calculated as a ratio of uterus weight upon removal to body weight post-mortem.
As a first step, the impact of RAD1901 on uterine wet weight in mice was evaluated. For this study, increasing doses of RAD1901 was administered daily to ovariectomized C57Bl/6 mice receiving vehicle alone or E2 (10 μg/kg; a physiological replacement dose). A group of mice receiving 10 mg/kg of raloxifene was included for comparative purposes and for reference. Ovariectomized C57Bl/6 mice (n=5) were treated daily for 3 days with (FIG. 8A) vehicle or (FIG. 8B) estradiol (10 μg/kg) together with vehicle, Ralox (10 mg/kg) or RAD1901 (RAD), ([…]). At euthanasia, body weight as well as uterine wet weight was measured prior to cryopreservation of the uterus. […] For FIG. 8C, ESR1 and β-actin expression in extracts made from pulverized uterine tissues were analyzed by immunoblot as in FIG. 5 (left). ESR1 expression relative to β-actin was quantitated as in FIG. 6 (right). Significant downregulation (*p<0.05) of ESR1 was determined by ANOVA followed by Bonferroni comparison.

MCF7 xenograft tumors = assay: MCF7 xenograft tumor study after estrogen pellet removal; format: in vivo, mice
Description: Xenograft tumor analysis: Estrogen-stimulated MCF7 tumors were initiated in the axial mammary gland of 6-week old estrogen-treated (0.72 mg/60 days pellet sc, Innovative Research of America) ovariectomized female NU/NU mice (in-house colony) by serial transfer and were measured as described (Wardell et al., (2013) Clin Cancer Res 19 (9):2420-2431). […] FIG. 9: At ˜0.1 cm^3 tumor volume, the estrogen pellet was surgically removed, and mice were randomized (n=6-10) to daily treatment with vehicle or RAD1901 (0.3-10 mg/kg). Treatments were formulated as above. Animal tissues were processed and analyzed as described (Wardell et al., (2013) Clin Cancer Res 19 (9):2420-2431).
As shown above, high dose RAD1901 (20 mg/kg) inhibited the growth of ESR1-dependent MCF7-cell derived tumors in mice. However, the observation that uterine wet weight was increased in mice treated with doses of RAD1901 that were lower than that required to effect ESR1 turnover highlighted the need to examine whether a similar biphasic pharmacology was manifest in breast tumors. To further evaluate the pharmacology of RAD1901, a second xenograft tumor study was conducted in which MCF7 tumors were established under estrogen stimulation. For FIG. 9A, MCF7 xenograft tumors were initiated in ovariectomized female nu/nu mice as in FIG. 5. Estrogen pellets were surgically removed when tumors reached ˜0.1 cm^3 volume, and animals (n=6-10) then received daily treatment with vehicle or RAD1901 (RAD), (0.3-10 mg/kg sc). Mean tumor volume+/−SEM per day of treatment was presented. Significance as compared to the vehicle (2-way ANOVA of matched values followed by Bonferroni comparison) was indicated (*p<0.05, **p<0.0005). For FIG. 9B, uterine wet weight at sacrifice (measured as in FIG. 8) and % change in tumor volume (as compared to size at randomization) calculated using the final measurement recorded for mice in (FIG. 9A) are graphically presented. For FIGS. 9C-9D, expression of ESR1 target genes in tumors was analyzed essentially as in FIG. 5. Estrogen only samples from FIG. 5D were included for comparison. For FIG. 9E, ESR1 levels in tumor tissues were analyzed as in FIG. 8 and were normalized to similarly detected Lamin-A. Significant downregulation (*p<0.05) was determined by ANOVA followed by Bonferroni comparison.

Question: Which results are given for `CCNCCc1ccc(CN(CC)c2cc(OC)ccc2[C@@H]2CCc3cc(O)ccc3C2)cc1` [RAD1901, (R)-6-{2-{ethyl[4-(2-ethylaminoethyl)benzyl]amino}-4-methoxyphenyl}-5,6,7,8-tetrahydronaphthalen-2-ol]?
Answer: cell proliferation (LTED MCF7 cells): inhibited cell proliferation; ESR1 expression in uterine tissue (immunoblot) (ESR1; 0.3 mg/kg): no decrease in ESR1 expression; uterine wet weight, single agent (ESR1; 0.3 mg/kg sc daily for 3 days): statistically significant increase; ESR1 expression in uterine tissue (immunoblot) (ESR1; RAD1901 0.3-100 mg/kg): dose dependent downregulation; uterine wet weight, single agent (ESR1; doses of 1 mg/kg and above, sc daily for 3 days): indistinguishable from vehicle treated animals; E2-dependent increases in uterine wet weight (ESR1; with estradiol 10 μg/kg, RAD1901 0.3-100 mg/kg): inhibit E2-dependent increases in uterine wet weight; ESR1 levels in tumor extracts (immunoblot) (MCF7 xenograft tumors; 0.3-10 mg/kg): dose-dependent downregulation; final tumor size (MCF7 xenograft tumors; 1 or 3 mg/kg groups): significantly increased; tumor growth after estrogen withdrawal (MCF7 xenograft tumors; 1 or 3 mg/kg sc daily): significant stimulation of tumor growth; expression of AGR2 in tumors (MCF7 xenograft tumors; 1 or 3 mg/kg treatment groups): observed; expression of classical ESR1 target genes such as PGR in tumors (MCF7 xenograft tumors; 1 or 3 mg/kg treatment groups): not observed; tumor growth after estrogen withdrawal (MCF7 xenograft tumors; higher dose (10 mg/kg) sc daily): not apparent at the higher dose; uterine wet weight at sacrifice (MCF7 xenograft tumors; nu/nu mice, 0.3-10 mg/kg sc daily): stimulation of uterine weight was apparent in mice treated with only the 0.3 mg/kg dose

Reference: US10420734B2, “Method of treating cancer using selective estrogen receptor modulators” (Duke University, priority 2014, dated 2019)
